Test results published in patent US20240252456A1, “ORAL COMPOSITION, SKIN COSMETIC AND HAIR COSMETIC” (MARUZEN PHARMACEUTICALS CO., LTD., priority 2021, published 2024).

Legend:
tyrosinase = test: Tyrosinase activity inhibitory action test; assay type: biochemical
Experimental: In a 48-well plate, 0.2 mL of McIlvaine buffer solution (pH 6.8), 0.06 mL of 0.3 mg/mL tyrosine solution, and 0.18 mL of the test sample (Sample 3, see Table 4 below for final concentration) dissolved in 25% DMSO solution were added, and they were statically placed at 37° C. for 10 minutes. To this, 0.02 mL of 1000 units/mL tyrosinase solution was added, followed by reaction at 37° C. for 15 minutes. After the reaction was completed, the absorbance at a wavelength of 475 nm was measured. As a blank, the same operation and absorbance measurement were performed in the case in which no enzyme solution was added. Furthermore, as a control, the same measurement was performed in the case in which 25% DMSO solution was added without adding the sample solution. From the obtained measurement results, the tyrosinase activity inhibition rate (%) was calculated using the following equation. [formula] Terms in the equation represent the following respective ones. • A: Absorbance at wavelength 475 nm with test sample addition and enzyme addition • B: Absorbance at wavelength 475 nm with test sample addition and without enzyme addition • C: Absorbance at wavelength 475 nm without sample addition and with enzyme addition • D: Absorbance at wavelength 475 nm without sample addition and without enzyme addition

HAS3 mRNA = test: Hyaluronic acid synthase 3 (HAS3) mRNA expression promotive action test; assay type: cell-based, human; conditions: 25 μmol/L; NHEK, 24 hours; A/B×100, corrected with GAPDH
Experimental: (§1) Normal human neonatal epidermal keratinocytes (NHEK) were precultured using normal human epidermal keratinocyte growth medium (KGM), and the cells were collected by a trypsin treatment. The collected cells were diluted with KGM to a cell density of 15×10^4 cells/mL, then seeded with 2 mL portions in a 6-well plate (30×10^4 cells/well), and cultured overnight under conditions of 37° C. and 5% CO2. After culturing, the medium was replaced with normal human epidermal keratinocyte basal medium (KBM, the above KGM without addition of growth additives (hEGF, BPE, insulin, antibacterial agents, hydrocortisone)), and culturing was further performed for 24 hours.
(§2) After culturing for 24 hours, the medium was removed, and 2 mL of the test sample (Sample 1, see Table 10 below for final concentration) dissolved in KBM was added to each well, and culturing was performed under conditions of 37° C. and 5% CO2 for 24 hours. As a control, culturing was performed in the same manner using KBM to which no sample was added. After culturing, the medium was removed, total RNA was extracted using ISOGEN II (available from NIPPON GENE CO., LTD.), each RNA amount was measured using a spectrophotometer, and the total RNA was prepared so as to be 150 ng/μL.
For HAS3 and GAPDH as an internal standard, the expression levels of mRNA were measured using the above total RNA as a template. […]

AQP3 mRNA = test: Aquaporin 3 (AQP3) mRNA expression promotive action test; assay type: cell-based, human; conditions: 100 μmol/L; NHEK, 24 hours, corrected with GAPDH
Experimental: as §1
as §2, with “17” for “10”
For AQP3 and GAPDH as an internal standard, the expression levels of mRNA were measured using the above total RNA as a template. […]

[1] = tested on: Normal human hair follicle dermal papilla cells (HFDPC); test: Follicle dermal papilla cell proliferation promotive action test (MTT); assay type: cell-based; conditions: 100 μmol/L, 4 days
Experimental: Normal human hair follicle dermal papilla cells (HFDPC, derived from the parietal region of a person) were cultured using follicle dermal papilla cell growth medium (PCGM, available from TOYOBO CO., LTD.) containing 1% FCS and growth additives, and then the cells were collected by a trypsin treatment. The collected cells were diluted to a cell density of 1.0×10^4 cells/mL using Dulbecco's modified Eagle's medium (DMEM) containing 10% FBS, then seeded with 200 μL per well in a collagen-coated 96-well plate, and cultured for 3 days.
After that, the medium was removed, 200 μL of the test sample (Sample 1, see Table 25 below for final concentration) dissolved in serum-free DMEM was added to each well, and culturing was further performed for 4 days. […] After the culturing was completed, the follicle dermal papilla cell proliferation promotive action was measured by MTT assay. […] The absorbance of this extract was measured at 570 nm giving the maximum absorption point of blue formazan. At the same time, the absorbance at a wavelength of 650 nm was measured as turbidity, and the difference between the two was determined as the production amount of blue formazan. From the measurement results, the follicle dermal papilla cell proliferation promotion rate (%) was calculated based on the following equation. […]

Row | SMILES | Tyrosinase activity inhibition rate (tyrosinase; 125 μmol/L) [%] | Tyrosinase activity inhibition rate (tyrosinase; 250 μmol/L) [%] | Tyrosinase activity inhibition rate (tyrosinase; 500 μmol/L) [%] | Tyrosinase activity inhibition rate (tyrosinase; 1000 μmol/L) [%] | HAS3 mRNA expression promotion rate (HAS3 mRNA) | AQP3 mRNA expression promotion rate (AQP3 mRNA) [%] | Follicle dermal papilla cell proliferation promotion rate [1] [%]
1 | O=C(O)CCc1ccccc1 [Sample 3, 3-phenylpropionic acid] | 4.4 | 9.6 | 15.2 | 22.8 | – | – | –
2 | O=C(O)CCc1ccc(O)c(O)c1 [Sample 1, 3,4-Dihydroxyhydrocinnamic acid] | – | – | – | – | 173. 5% | 207.8 | 124.8
